US8828997B2, “2,3-dihydro-1H-imidazo(1,2-a)pyrimidin-5-one derivatives, preparation thereof, and pharmaceutical use thereof” (Sanofi, priority 2009, dated 2014)
Each block holds one compound with its values, some of them ahead of it.

Assays:
Type in all cases: cell-based
[1] = system: translocation of the LC3 protein in Hela GFP-LC3 cells; assay: Translocation of the LC3 protein in Hela human cells measured by image analysis cytometry (test C, autophagy); conditions: EBSS + 10 μM hydroxychloroquine, cells with LC3 granulations, absolute IC50
Procedure: Inhibitory activity of the molecules on autophagy is measured by means of the translocation of the LC3 protein from the cytoplasm to the autophagosomes. For this, Hela cells were transfected with a vector encoding the chimeric protein GFP-LC3. A Hela clone stably expressing the GFP-LC3 protein was selected.
Study of the Translocation of the LC3 Protein in Hela Human Cells, Measured by Image Analysis Cytometry (Test C):
(§1) On day 1, the Hela GFP-LC3 cells are seeded into 96-well plates coated with poly-D-lysine (Greiner, #655946) at the concentration of 15000 cells/well in 200 μl of DMEM medium (DMEM Gibco #11960-044) containing 10% of foetal calf serum (FCS Gibco, #10500-056) and 1% glutamine (L-Glu Gibco #25030-024), and incubated at 37° C., 5% CO2, overnight.
On day 2, the cells are washed twice with EBSS (Sigma #E3024). The cells are then incubated in EBSS, 10 μM hydroxychloroquine and test products, for 2 hours at 37° C. in the presence of 5% CO2. The molecules are diluted in dimethyl sulphoxide (DMSO Sigma #D2650), the final DMSO percentage being 0.1%. The molecules are tested at increasing concentrations in a range that can extend from 10 nM to 1 μM.
After this incubation, the cells are fixed with 4% paraformaldehyde (Sigma #HT501128 4L) for 10 min. The cells are then washed twice with PBS and the nuclei then stained with 2 μg/ml of Hoechst 33342 (Invitrogen #H3570). The 96-well plates are then read with the iCyte image analysis cytometer (Compucyte).
The activity of the product is translated to IC50, obtained from a dose-response curve of various concentrations tested and representing the dose giving 50% specific inhibition (absolute IC50). 2 independent experiments make it possible to calculate the mean of the IC50 values.

[2] = system: AKT protein phosphorylated on serine 473 (P-AKT-S473) in PC3 human prostate carcinoma cells; assay: pAKT expression in PC3 human prostate carcinoma cells measured by MSD Multi-spot Biomarker detection (test B); conditions: MSD sandwich immunoassay, 1 to 2 h incubation, absolute IC50
Procedure: The inhibitory activity of the molecules on AKT phosphorylation is measured either by western blotting using the technique described below, or by the MSD Multi-spot Biomarker detection technique from Meso Scale Discovery also described below.
Study of pAKT Expression in PC3 Human Prostate Carcinoma Cells Measured by the MSD Multi-Spot Biomarker Detection Technique from Meso Scale Discovery (Test B):
This test is based on measuring the expression of the AKT protein phosphorylated on serine 473 (P-AKT-S473), in the PC3 human prostate carcinoma line, by means of the technique based on a sandwich immunoassay using the MSD Multi-spot Biomarker Detection kit from Meso Scale Discovery: phospho-Akt (Ser473) whole cell lysate kit (#K151CAD) or phospho-Akt (Ser473)/Total Akt whole cell lysate kit (#K151OOD). The primary antibody specific for P-AKT-S473 (Kit #K151CAD) is coated onto an electrode in each well of the 96-well plates of the MSD kit: after the addition of a protein lysate to each well, the signal is visualised by adding a secondary detection antibody labelled with an electrochemoluminescent compound. The procedure followed is that described in the kit.
as §1, with “PC3” for “Hela GFP-LC3”, “(TPP, #92096)” for “coated with poly-D-lysine (Greiner, #655946)”, “35 000” for “15000”
On day 2, the cells are incubated in the presence or absence of the test products for 1 to 2 h at 37° C. in the presence of 5% of CO2. The molecules, diluted in dimethyl sulphoxide (DMSO Sigma #D2650), are added from a 20-times concentrated stock solution, the final percentage of DMSO being 0.1%. The molecules are tested either at a single concentration of less than or equal to 10 μM, or at increasing concentrations in a range that can extend from less than 1 nM to 10 μM.
After this incubation, the cells are lysed for the preparation of the proteins. For this, after the culture medium has been drawn off, 50 μl of complete Tris Lysis Buffer of the MSD kit containing the protease and phosphatase inhibitor solutions are added to the wells and the cells are lysed for 1 h at 4° C. with shaking. At this stage, the plates containing the lysates can be stored at −20° C. or at −80° C.
The wells of the 96-well plates of the MSD kit are saturated for 1 h at ambient temperature with the blocking solution of the MSD kit. Four washes are carried out with 150 μl of Tris Wash Buffer of the MSD kit. The lysates previously prepared are transferred into the 96-well multi-spot plates of the MSD kit and incubated for 1 h at ambient temperature, with shaking. Four washes are carried out with 150 μl of Tris Wash Buffer of the MSD kit. 25 μl of the MSD sulfo-tag detection antibody solution are added to the wells and incubated for 1 h at ambient temperature, with shaking. Four washes are carried out with 150 μl of Tris Wash Buffer of the MSD kit. 150 μl of Read Buffer of the MSD kit are added to the wells and the plates are read immediately on the S12400 instrument from Meso Scale Discovery.
The instrument measures a signal for each well. Wells without cells and containing the lysis buffer serve to determine the background noise that will be subtracted from all the measurements (min). The wells containing cells in the absence of product and in the presence of 0.1% DMSO are considered to be the 100% signal (max). The percentage inhibition is calculated for each concentration of test product according to the following formula: (1-((test−min)/(max−min)))×100.
The activity of the product is translated to IC50, obtained from a dose-response curve of the various concentrations tested and representing the dose giving 50% specific inhibition (absolute IC50). 2 independent experiments make it possible to calculate the mean of the IC50 values.

[3] = system: P. falciparum (highly chloroquine-resistant strain Fcm29-Cameroon); assay: Antimalarial activity test (radioactive micromethod of Desjardins, tritiated hypoxanthine incorporation); conditions: Plasmodium falciparum, Erythrocyte, infected human erythrocytes, 48 h
Procedure: Antimalarial Activity Test
The antimalarial activity tests are carried out according to the radioactive micromethod of Desjardins (R. E. Desjardins, C. J. Canfield, J. D. Haynes, J. D. Chulay, Antimicrob. Agents Chemother., 1979, 16, 710-718). The assays are carried out in 96-well microplates (Test Plates Ref. 92696, Techno Plastic Products Ag, Zollstrasse 155, CH-8219 Trasadingen). The P. falciparum strains are cultured in solutions of RPMI 1640 supplemented with 5% of human serum with a haematocrit at 2% and a blood parasite concentration at 1.5%. For each assay, the parasites are incubated with selected concentrations of drugs for 48 h at 37° C. in a humid atmosphere and at 5% CO2. Artemisinin, artesunate and also chloroquine diphosphate are used as reference molecules. The first dilution of the drug is prepared at 1 mg/ml in dimethyl sulphoxide. The range of dilutions of the successive daughter solutions is also prepared in dimethyl sulphoxide. Each daughter dilution is subsequently diluted to 1/50 in RPMI 1640 supplemented with 5% of human serum, all the dilutions being carried out at 37° C. These dilutions are then added to the parasites in culture in the microplates. After addition of the drug, the parasites are in culture in RPMI 1640 containing 5% of human serum and 1% of dimethyl sulphoxide. The parasite growth is measured by incorporation of tritiated hypoxanthine (added 24 h after the beginning of the exposure to the drug) compared with the incorporation in the absence of drug.
The activity of the product is translated to % inhibition of the growth of P. falciparum (highly chloroquine-resistant strain Fcm29-Cameroon) at 1 μM and 0.1 μM in an in vitro test using infected human erythrocytes.

[4] = Homo sapiens, PC-3, P-AKT-S473, PC3 cells

SMILES: CC(c1ccccc1)N1c2nc(N3CCOCC3)cc(=O)n2C[C@@]1(C)C(F)(F)F (single isomer, unassigned) [Example 32, (2S)-2-Methyl-7-(morpholin-4-yl)-1-[(1R or 1S)-1-phenylethyl]-2-(trifluoromethyl)-2,3-dihydroimidazo[1,2-a]pyrimidin-5(1H)-one]
IC50 ([1]; 2 hours): > 1000 nM
IC50 ([2]; P-AKT-S473, PC3 cells): 22 nM

SMILES: CC(c1ccccc1F)N1c2nc(N3CCOCC3)cc(=O)n2C[C@@]1(C)C(F)(F)F (single isomer, unassigned) [Example 36, (2S)-1-[(1R or 1S)-1-(2-Fluorophenyl)ethyl]-2-methyl-7-(morpholin-4-yl)-2-(trifluoromethyl)-2,3-dihydroimidazo[1,2-a]pyrimidin-5(1H)-one]
IC50 ([1]; Homo sapiens, HeLa, 2 h): 995 nM
IC50 ([2]; P-AKT-S473, PC3 cells): 4 nM

SMILES: C[C@@]1(C(F)(F)F)Cn2c(nc(N3CCOCC3)cc2=O)N1C(=O)c1ccccc1 [Example 21, (2S)-2-Methyl-7-(morpholin-4-yl)-1-(phenylcarbonyl)-2-(trifluoromethyl)-2,3-dihydroimidazo[1,2-a]pyrimidin-5(1H)-one]
IC50 ([1]; Homo sapiens, HeLa, 2 h): > 1000 nM
IC50 [2, 4]: 7 nM

SMILES: COc1cccc(CCN2c3nc(N4CCOCC4)cc(=O)n3C[C@@]2(C)C(F)(F)F)c1 [Example 26, (2S)-1-[2-(3-Methoxyphenyl)ethyl]-2-methyl-7-(morpholin-4-yl)-2-(trifluoromethyl)-2,3-dihydroimidazo[1,2-a]pyrimidin-5(1H)-one]
inhibition at 0.1 µM ([3]; 0.1 μM): 14%
inhibition at 1 µM [3]: 75%
IC50 [2, 4]: 16 nM

SMILES: C[C@@]1(C(F)(F)F)Cn2c(nc(N3CCOCC3)cc2=O)N1CCc1ccccc1Cl [Example 27, (2S)-1-[2-(2-Chlorophenyl)ethyl]-2-methyl-7-(morpholin-4-yl)-2-(trifluoromethyl)-2,3-dihydroimidazo[1,2-a]pyrimidin-5(1H)-one]
IC50 ([1]; Homo sapiens, HeLa, 2 h): 51 nM
inhibition at 1 µM [3]: 53%
IC50 [2, 4]: 24 nM

SMILES: C[C@@]1(C(F)(F)F)Cn2c(nc(N3CCOCC3)cc2=O)N1Cc1nc2ccccc2o1 [Example 30, (2S)-1-(1,3-Benzoxazol-2-ylmethyl)-2-methyl-7-(morpholin-4-yl)-2-(trifluoromethyl)-2,3-dihydroimidazo[1,2-a]pyrimidin-5(1H)-one]
IC50 ([1]; Homo sapiens, HeLa, 2 h): > 1000 nM
IC50 [2, 4]: 89 nM

SMILES: Cc1ccccc1C(=O)N1c2nc(N3CCOCC3)cc(=O)n2C[C@@]1(C)C(F)(F)F [Example 35, (2S)-2-Methyl-1-[(2-methylphenyl)carbonyl]-7-(morpholin-4-yl)-2-(trifluoromethyl)-2,3-dihydroimidazo[1,2-a]pyrimidin-5(1H)-one]
IC50 ([1]; Homo sapiens, HeLa, 2 h): > 1000 nM
IC50 [2, 4]: 32 nM

Continued, values first:

IC50 ([1]; 2 hours): 737 nM
IC50 ([2]; P-AKT-S473, PC3 cells): 19 nM
SMILES: CC(c1ccccc1F)N1c2nc(N3CCOCC3)cc(=O)n2C[C@@]1(C)C(F)(F)F (single isomer, unassigned) [Example 37, (2S)-1-[(1R or 1S)-1-(2-Fluorophenyl)ethyl]-2-methyl-7-(morpholin-4-yl)-2-(trifluoromethyl)-2,3-dihydroimidazo[1,2-a]pyrimidin-5(1H)-one]

IC50 ([1]; Homo sapiens, HeLa, 2 h): 425 nM
IC50 [2, 4]: 26 nM
SMILES: C[C@@]1(C(F)(F)F)Cn2c(nc(N3CCOCC3)c(F)c2=O)N1Cc1ccccc1 [Example 19, (2S)-1-Benzyl-6-fluoro-2-methyl-7-(morpholin-4-yl)-2-(trifluoromethyl)-2,3-dihydroimidazo[1,2-a]pyrimidin-5(1H)-one]

IC50 ([1]; Homo sapiens, HeLa, 2 h): 703 nM
IC50 [2, 4]: 18 nM
SMILES: C[C@@]1(C(F)(F)F)Cn2c(nc(N3CCOCC3)cc2=O)N1Cc1csc2ccc(Cl)cc12 [Example 20, (2S)-1-[(5-Chloro-1-benzothiophen-3-yl)methyl]-2-methyl-7-(morpholin-4-yl)-2-(trifluoromethyl)-2,3-dihydroimidazo[1,2-a]pyrimidin-5(1H)-one]

IC50 ([1]; Homo sapiens, HeLa, 2 h): 314 nM
IC50 [2, 4]: 13 nM
SMILES: C[C@@]1(C(F)(F)F)Cn2c(nc(N3CCOCC3)cc2=O)N1Cc1ccc(F)c(Br)c1 [Example 24, (2S)-1-(3-Bromo-4-fluorobenzyl)-2-methyl-7-(morpholin-4-yl)-2-(trifluoromethyl)-2,3-dihydroimidazo[1,2-a]pyrimidin-5(1H)-one]

IC50 ([1]; Homo sapiens, HeLa, 2 h): 621 nM
IC50 [2, 4]: 28 nM
SMILES: C[C@@]1(C(F)(F)F)Cn2c(nc(N3CCOCC3)cc2=O)N1Cc1cccc(F)c1F [Example 25, (2S)-1-(2,3-Difluorobenzyl)-2-methyl-7-(morpholin-4-yl)-2-(trifluoromethyl)-2,3-dihydroimidazo[1,2-a]pyrimidin-5(1H)-one]

IC50 ([1]; Homo sapiens, HeLa, 2 h): 461 nM
IC50 [2, 4]: 42 nM
SMILES: C[C@@]1(C(F)(F)F)Cn2c(nc(N3CCOCC3)cc2=O)N1Cc1c[nH]c2ccccc12 [Example 33, (2S)-1-(1H-indol-3-ylmethyl)-2-methyl-7-(morpholin-4-yl)-2-(trifluoromethyl)-2,3-dihydroimidazo[1,2-a]pyrimidin-5(1H)-one]
